In PMC3934827 (Neuropharmacology, 2014):
Read-outs that look alike come from different tables or passages of the source.

Columns and labels:
[1] = test system: parkinsonian motor effects; assay: Standardized motor disability scale for parkinsonian primates; assay type: in vivo, Rhesus monkeys (Macaca mulatta)
[2] = test system: cortical-, extrapyramidal motor- and autonomic-mediated functions; assay: Drug Effects on Nervous System
D2 receptor = details: ref Olsen et al., 2008; cited from earlier work
[3] = test system: finger dexterity / fast hand movements; assay: Klüver Board test; assay type: in vivo, Rhesus monkeys (Macaca mulatta)
stability and balance = assay: Perch test; assay type: in vivo, Rhesus monkeys (Macaca mulatta); details: MP-10 0.21 or 0.67 mg/kg s.c.
PDE10A = assay: Estimated PDE10A target occupancy; assay type: in vivo, Rhesus monkeys (Macaca mulatta); details: calculated from Cp,u with IC50 1.0 nM
[4] = rat; ref Schmidt et al, 2008; cited from earlier work
[5] = mouse; ref Verhoest et al, 2009; cited from earlier work
brain [18F] FDG uptake = assay: [18F] Fluorodeoxyglucose-PET imaging of brain; assay type: in vivo, Rhesus monkeys (Macaca mulatta)
[6] = test system: blood-brain barrier efflux transporters; details: ref Verhoest et al, 2009; cited from earlier work
psychotic symptoms = details: ref DeMartinis, 2012, cited from earlier work
[7] = Plasma levels of MP-10 after subcutaneous administration; details: rhesus monkey, sc
[8] = risperidone 0.032 and 0.1 mg/kg s.c.
[9] = MP-10 0.67 and 1.33 mg/kg s.c., p < 0.001
[10] = MP-10 doses up to 0.21 mg/kg s.c.

For Cc1nc2n(c(=O)c1CCN1CCC(c3noc4cc(F)ccc34)CC1)CCCC2 [risperidone, reference compound], the “motor disability scores (motor behavior)” value ([1]; risperidone 0.01 mg/kg s.c., 3 hours after administration) was “no effect”, the “hand movement score, in comparison to MP-10” value [1, 8] was “greater, dose-dependent increases” and the “leg movement score, in comparison to MP-10” value [1, 8] was “greater, dose-dependent increases”. The “mobility score, in comparison to MP-10” value [1, 8] was “notably less effect”, the “posture score, in comparison to MP-10” value [1, 8] was “roughly comparable increases” and the motor disability scores ([1]; risperidone 0.032 and 0.1 mg/kg s.c., dose- and time-dependent, p < 0.001) was “significant increases”. The “behaviors scored using the DENS scale” value ([2]; risperidone 0.01 mg/kg s.c.) was “minimal effects”, the DENS involuntary movements ([2]; risperidone 0.032 mg/kg s.c., all monkeys) was “significant involuntary movements” and the “intensity of involuntary movements” value ([2]; risperidone 0.1 mg/kg s.c. vs 0.032 mg/kg) was “further increased”. For the same molecule, the “DENS attentiveness, compared with MP-10” value ([2]; risperidone s.c.) was “less impairment”, the “DENS reactivity, compared with MP-10” value ([2]; risperidone s.c.) was “less impairment” and the “D2 receptor TO at which antipsychotic efficacy is observed” value (D2 receptor) was over 55%. For the same molecule, the “Klüver board action time, baseline vs 90 min” value ([3]; risperidone 0.01 mg/kg s.c.) was “No significant differences” and the “Klüver board action time” value ([3]; risperidone 0.032 and 0.1 mg/kg s.c., at cut off) was 60 s.

In the case of Cn1cc(-c2ccncc2)c(-c2ccc(OCc3ccc4ccccc4n3)cc2)n1 [MP-10, 2-[4-(1-methyl-4-pyridin-4-yl-1H-pyrazol-3-yl)-phenoxymethyl]-quinoline], the Perch test performance (stability and balance) is reported as “did not show any compromise”, the “Perch test scores before and 90 min after injection” value (stability and balance) is reported as “zero” and the “projected PDE10A target occupancy” value (PDE10A; 0.21 mg/kg s.c., 1 h) is reported as 16 ± 1%. The “projected PDE10A target occupancy” value (PDE10A; 0.21 mg/kg s.c., 2 h) was 19 ± 3%, the “projected PDE10A target occupancy” value (PDE10A; 0.21 mg/kg s.c., 3 h) was 17 ± 1% and the “projected PDE10A target occupancy” value (PDE10A; 0.67 mg/kg s.c., 1 h) was 41 ± 5%. For the same molecule, the “projected PDE10A target occupancy” value (PDE10A; 0.67 mg/kg s.c., 2 h) was 47 ± 2%, the “projected PDE10A target occupancy” value (PDE10A; 0.67 mg/kg s.c., 3 h) was 42 ± 3% and the “brain-to-plasma ratio (total brain-to-total plasma concentrations)” value [4] was ~ 0.9. For the same molecule, the “global motor disability scores” value ([1]; MP-10 0.021, 0.067, or 0.21 mg/kg s.c., 3 hours after administration) was “no effect”, the social interaction ([1]; MP-10 0.67 and 1.33 mg/kg s.c., similar at both doses, p < 0.001) was “decrease in social interaction” and the “impairment in hand movements” value [1, 9] was “mild and similar at both doses”. For the same molecule, the “impairment in leg movements” value [1, 9] was “mild and similar at both doses”, the mobility score [1, 9] was “increased in a dose dependent fashion” and the posture score [1, 9] was “increased in a dose dependent fashion”. The “global motor disability scores” value ([1]; MP-10 0.67 and 1.33 mg/kg s.c., p < 0.001, 3 of the 4 monkeys) was “increase in global scores”, the “brain-to-plasma ratio (total brain-to-total plasma concentrations)” value [5] was ~ 0.9 and the DENS attentiveness [2, 9] was “decreased attentiveness”. The DENS involuntary movements [2, 9] was “induced oral dyskinesias”, the DENS reactivity [2, 9] was “decreased attentiveness and reactivity” and the “total DENS scores” value [2, 9] was “significant effects”. For the same molecule, the DENS involuntary movements [2, 10] was “no effect”, the DENS salivation ([2]; MP-10 s.c.) was “non-significant increases” and the “SUV of [18F] FDG in striatal regions (pooled) vs vehicle” value (brain [18F] FDG uptake; MP-10 0.211 or 1.33 mg/kg s.c., p < 0.01, n=4) was “statistically significant increases”. For the same molecule, the “SUV of [18F] FDG in cortical regions (pooled) vs vehicle” value (brain [18F] FDG uptake; MP-10 0.211 or 1.33 mg/kg s.c., p < 0.02, n=4) was “statistically significant increases”, the “FDG SUV in other brain regions relative to control (vehicle)” value (brain [18F] FDG uptake; two doses of MP-10 (0.21, 1.33 mg/kg s.c.)) was “No significant differences” and the “substrate for blood-brain barrier efflux transporters” value [6] was “no evidence that it is a substrate”. For the same molecule, the “primary endpoint: reduction in psychotic symptoms” value (psychotic symptoms; Phase 2A trial NCT01175135) was “did not meet the primary endpoint”, the “adverse effects in Phase 2A trial” value (psychotic symptoms) was “sedation and side effects consistent with target engagement” and the “Klüver board task performance” value ([3]; MP-10 0.67 and 1.33 mg/kg s.c.) was “failed to perform the task”. For the same molecule, the “Klüver board index of success” value [3, 10] was “no effect”, the “Klüver board action time” value ([3]; MP-10 doses up to 0.21 mg/kg s.c., 90 min after injection) was “no effect” and the Tmax [7] was 1 to 2 h.
